{"source": "paper PMC3152630", "about": "(Pharmaceutical research, 2011)", "test_system": "diabetic rats (blood glucose level, BGL)", "test": "BGL pharmacodynamics after insulin administration to diabetic rats", "assay_type": "in vivo, rat", "conditions": "bolus subcutaneous injection of 0.1 U insulin, unbalanced ANOVA, P < 0.001"}
{"substance": "Insulin", "values": [{"measurement": "reduction in BGL compared to untreated controls", "value": "significant reduction in BGL"}]}
